Data from patent US20070202134A1, “Muc1 Antagonist Enhancement of Death Receptor Ligand-Induced Apoptosis” (priority 2004, published 2007).

Legend:
Type in all cases: cell-based, Human
[1] = test system: HCT116/vector cells; assay: Apoptosis by analysis of sub-G1 DNA, HCT116/vector cells
Protocol: Methods. Apoptotic cells were quantified by analysis of sub-G1 DNA and TUNEL staining. To assess sub-G1 DNA content, cells were harvested, washed with PBS, fixed with 80% ethanol, and incubated in PBS containing 20 ng/ml RNase (Roche) for 60 min at 37° C. Cells were then stained with […] propidium iodide (Sigma) for 30 min at room temperature in the dark. DNA content was analyzed by flow cytometry (EPICS XL-MCL, Coulter Corp.). Apoptotic cells with DNA fragmentation were detected by staining with the In Situ cell death detection kit (TUNEL; Roche Applied Science) and visualized by confocal microscopy (ZEISS LSM510). After staining, cells were analyzed by flow cytometry. Other experimental procedures and methods were as described in Example 1.

[2] = test system: MUC1 C-ter; assay: Expression of MUC1 C-ter after CHX; conditions: CHX treatment
Protocol: (§1) Immunoblot analysis. Lysates were prepared from subconfluent cells as described (Li et al., 2001a). Equal amounts of protein were separated by SDS-PAGE and transferred to nitrocellulose membranes. […] The immunocomplexes were detected with horseradish peroxidase-conjugated secondary antibodies and enhanced chemiluminescence (ECL, Amersham Biosciences, Piscataway, N.J.). Intensity of the signals was determined by densitometric scanning.
Methods. Apoptotic cells were quantified by analysis of sub-G1 DNA and TUNEL staining. […] DNA content was analyzed by flow cytometry (EPICS XL-MCL, Coulter Corp.). Apoptotic cells with DNA fragmentation were detected by staining with the In Situ cell death detection kit (TUNEL; Roche Applied Science) and visualized by confocal microscopy (ZEISS LSM510). After staining, cells were analyzed by flow cytometry. […]

[3] = test system: MUC1(Y46F) C-ter; assay: Mitochondrial localization of MUC1(Y46F) C-ter in HCT116/MUC1(Y46F) cells (immunoblot of mitochondrial fractions)
Protocol: (§2) Cell culture. Human HCT116 colon carcinoma cells (ATCC, Manassas, Va.) were cultured in Dulbecco's modified Eagle's medium/F12 with 10% heat-inactivated fetal bovine serum, 100 units/ml penicillin, […] streptomycin and 2 mM L-glutamine. Cells were treated with EGF (10 ng/ml; Calbiochem-Novabiochem, San Diego, Calif.), HRG (20 ng/ml; Calbiochem-Novabiochem), cisplatin (CDDP; Sigma), etoposide (Sigma), rhTNF-a (Promega, Madison, Wis.), CHX (Sigma) or rhTRAIL (100 ng/ml; Calbiochem-Novabiochem).
as §1, with “scanning. […]” for “scanning.”

[4] = test system: MUC1 C-ter; assay: Mitochondrial localization of MUC1 C-ter in HCT116/MUC1 cells (immunoblot of mitochondrial fractions)
Protocol: as §2
as §1, with “scanning. […]” for “scanning.”

[5] = test system: HCT116/MUC1(Y46F) cells; assay: Cell death after CDDP treatment, HCT116/MUC1(Y46F) cells; conditions: CDDP for 72 h
Protocol: as §2
(§3) Methods. Experimental procedures and methods were as described in Example 1.

[6] = test system: HCT116/vector cells; assay: Cell death after CDDP treatment, HCT116/vector cells; conditions: CDDP for 72 h
Protocol: as §2, §3

[7] = test system: HCT116/MUC1 cells; assay: Cell death after CDDP treatment, HCT116/MUC1 cells; conditions: CDDP for 72 h, cessation of cell growth
Protocol: as §2, §3

[8] = test system: cytochrome c; assay: Release of mitochondrial cytochrome c to the cytosol (immunoblot), HCT116/vector cells; conditions: HCT116/vector cells treated with CDDP
Protocol: as §2
as §1, with “scanning. […]” for “scanning.”

TNF-α
induction of apoptosis ([1]; 20 ng/ml TNF-α in the presence of 10 ng/ml cycloheximide (CHX), 12 hr): associated with induction of HCT116/vector cell apoptosis | induction of apoptosis ([1]; TNF-α alone): failed to induce apoptosis

C[C@@H]1C[C@@H]([C@H](O)CC2CC(=O)NC(=O)C2)C(=O)[C@@H](C)C1 [CHX, cycloheximide]
effect on expression of MUC1 C-ter [2]: no apparent effect

EGF: EGF (10 ng/ml; Calbiochem-Novabiochem) (NSDSECPLSHDGYCLHDGVCMYIEALDKYACNCVVGYIGERCQYRDLKWWELR; Epidermal growth factor; UniProt P01133 971-1023, looked up)
effect on mitochondrial targeting of MUC1 C-ter ([3]; EGF 10 ng/ml): little effect | effect on mitochondrial targeting of MUC1 C-ter ([4]; EGF 10 ng/ml): little effect

[NH2][Pt]([NH2])([Cl])[Cl] [CDDP, cisplatin]
apoptosis (sub-G1 DNA) ([1]; 100 μM CDDP for 24 h): approximately 40% | cell death [5]: > 90% | cell death [6]: > 90% | cell death [7]: < 30% | levels of cytosolic cytochrome c [8]: increased levels of cytosolic cytochrome c

heregulin [HRG]
effect on mitochondrial localization of MUC1(Y46F) C-ter ([3]; HRG 20 ng/ml): little effect | increase in localization of MUC1 C-ter to mitochondria ([4]; HRG 20 ng/ml, 0.5 h, persisted through 3 h): 2.3 fold
